From patent US20020028836A1, “Potassium channel openers” (priority 2000, published 2002)
Read-outs that look alike come from different tables or passages of the source.

System: tissue strips obtained from Landrace pig bladders
Assay: Functional potassium channel opening activity in isolated bladder strips (field-stimulated twitch)
Conditions: for Index: ED50 for P1075 divided by ED50 for the test agonist in a given tissue, averaged; for EC50: amount of agent necessary to cause 50% of the agent's maximal response, read-out: ED50 (the source's name); for Efficacy (% P1075) / Emax: maximal efficacy relative to P1075, field stimulation 0.05 Hz, 0.5 ms, 20 volts
Experimental: Compounds were evaluated for functional potassium channel opening activity using tissue strips obtained from Landrace pig bladders.
Landrace pig bladders were obtained from female Landrace pigs of 9-30 kg. Landrace pigs were euthanized with an intraperitoneal injection of pentobarbital solution, Somlethal®, J. A. Webster Inc., Sterling, Mass. The entire bladder was removed and immediately placed into Krebs Ringer bicarbonate solution (composition, mM: NaCl, 120; NaHCO3, 20; dextrose, 11; KCl, 4.7; CaCl2, 2.5; MgSO4, 1.5; KH2PO4, 1.2; K2EDTA, 0.01, equilibrated with 5% CO2/95% O2pH 7.4 at 37° C.). Propranolol (0.004 mM) was included in all of the assays to block β-adrenoceptors. The trigonal and dome portions were discarded. Strips 3-5 mm wide and 20 mm long were prepared from the remaining tissue cut in a circular fashion. The mucosal layer was removed. One end was fixed to a stationary glass rod and the other to a Grass FT03 transducer at a basal preload of 1.0 gram. Two parallel platinum electrodes were included in the stationary glass rod to provide field stimulation of 0.05 Hz, 0.5 milli-seconds at 20 volts. This low frequency stimulation produced a stable twitch response of 100-500 centigrams. Tissues were allowed to equilibrate for at least 60 minutes and primed with 80 mM KCl. A control concentration response curve (cumulative) was generated for each tissue using the potassium channel opener P1075 as the control agonist. […] After a 60 minute rinsing period, a concentration response curve (cumulative) was generated for the test agonist in the same fashion as that used for the control agonist P1075. The maximal efficacy of each compound (expressed as % relative to P1075) is reported. The amount of agent necessary to cause 50% of the agent's maximal response (ED50) was calculated using “ALLFIT” (DeLean et al., Am. J. Physiol., 235, E97 (1980)), hereby incorporated by reference. Agonist potencies were also expressed as an index relative to P1075. The index was calculated by dividing the ED50 for P1075 by the ED50 for the test agonist in a given tissue. Each tissue was used for only one test agonist, and the indices obtained from each tissue were averaged to provide an average index of potency.

Q: Which results are given for `CC(Cl)(Cl)C(NC(=O)c1ccc(Cl)cc1)NC(=NC#N)Nc1cccnc1` (single isomer, unassigned; (+)) [Example 118, (+) 4-chloro-N-(2,2-dichloro-1-{[(cyanoimino)(3-pyridinylamino)methyl]amino}propyl)benzamide]?
A: Index: 0.006; EC50: 22 µM; Efficacy (% P1075): 69 % P1075

Q: With `CC(C)(C)CC(NC(=O)c1ccc(Cl)cc1)NC(=N[N+](=O)[O-])Nc1cccnc1` (single isomer, unassigned; (+)) [Example 125, (+) 4-chloro-N-(1-{[(nitroimino)(3-pyridinylamino)methyl]amino}-3,3-dimethylbutyl)benzamide] as the compound, how does the Index read?
A: The Index was 0.030.

Q: And the EC50?
A: The EC50 was 9.2 µM.

Q: And the “Efficacy (% P1075)” value?
A: Its value is 92 % P1075.

Q: How did the Index turn out when `CC(Cl)(Cl)C(NC(=O)c1ccc(Cl)cc1)NC(=NC#N)Nc1ccc(Cl)nc1` (single isomer, unassigned; (+)) [Example 162, (+) 4-chloro-N-(2,2-dichloro-1-{[[(6-chloro-3-pyridinyl)amino](cyanoimino)methyl]amino}propyl)benzamide] was run?
A: Its Index is 0.025.

Q: What about the EC50 of the same compound?
A: The EC50 was 9 µM.

Q: What about the “Efficacy (% P1075)” value of the same compound?
A: The value was 87 % P1075.

Q: `CC(C)(C)CC(NC(=O)c1ccc(Cl)cc1)NC(=NS(=O)(=O)C(F)(F)F)Nc1cccnc1` (single isomer, unassigned; (+)) [Example 186, (+) 4-chloro-N-{3,3-dimethyl-1-[((3-pyridinylamino){[(trifluoromethyl)sulfonyl]imino}methyl)amino]butyl}benzamide] was tested. Which Index did it give?
A: The Index was 2.1.

Q: And the EC50?
A: Its EC50 is 1.2 µM.

Q: What about the “Efficacy (% P1075)” value of the same compound?
A: The value was 66 % P1075.

Q: Which results are given for `CC(Cl)(Cl)C(NC(=O)c1ccc(Cl)cc1)NC(=NC#N)Nc1cccnc1` (single isomer, unassigned; (-)) [Example 117, (−) 4-chloro-N-(2,2-dichloro-1-{[(cyanoimino)(3-pyridinylamino)methyl]amino}propyl)benzamide]?
A: Index: 0.030; EC50: 5.8 µM; Efficacy (% P1075): 79 % P1075

Q: How did the Index turn out when `CC(Cl)(Cl)C(NC(=O)c1ccc(Cl)cc1)NC(=NC#N)Nc1ccc(Cl)nc1` (single isomer, unassigned; (-)) [Example 161, (−) 4-chloro-N-(2,2-dichloro-1-{[[(6-chloro-3-pyridinyl)amino](cyanoimino)methyl]amino}propyl)benzamide] was run?
A: Its Index is 0.108.

Q: And the EC50?
A: Its EC50 is 4 µM.

Q: And the “Efficacy (% P1075)” value?
A: Its value is 93 % P1075.

Q: How did the Index turn out when `CC(C)(C)CC(NC(=O)c1ccc(Cl)cc1)NC(=NS(=O)(=O)C(F)(F)F)Nc1cccnc1` (single isomer, unassigned; (-)) [Example 187, (−) 4-chloro-N-{3,3-dimethyl-1-[((3-pyridinylamino){[(trifluoromethyl)sulfonyl]imino}methyl)amino]butyl}benzamide] was run?
A: Its Index is 0.077.

Q: And the EC50?
A: The EC50 was 7.8 µM.

Q: What about the “Efficacy (% P1075)” value of the same compound?
A: Its value is 52 % P1075.

Q: How did the Index turn out when `CC(C)(C)C(NC(=O)c1ccc(Cl)cc1)NC(=NC#N)Nc1cnc2ccccc2c1` (stereo not drawn) [Example 83, 4-chloro-N-(1-{[(cyanoimino)(3-guinolinylamino)methyl]amino}-2,2-dimethylpropyl)benzamide] was run?
A: Its Index is 0.031.

Q: And the EC50?
A: Its EC50 is 2.8 µM.

Q: And the “Efficacy (% P1075)” value?
A: Its value is 62 % P1075.

Q: What does the source list for `CC(C)(C)C(NC(=O)c1cc(F)cc(F)c1)NC(=NC#N)Nc1cccnc1` (stereo not drawn) [Example 110, N-(1-{[(cyanoimino)(3-pyridinylamino)methyl]amino}-2,2-dimethylpropyl)-3,5-difluorobenzamide]?
A: Index: 0.017; EC50 (Sus scrofa): 6.2 µM; Emax (Sus scrofa): 61%

Q: How did the Index turn out when `CC(Cl)(Cl)C(NC(=O)c1ccc(Cl)cc1)NC(=NC#N)Nc1cccnc1` (stereo not drawn) [Example 116, 4-chloro-N-(2,2-dichloro-1-{[(cyanoimino)(3-pyridinylamino)methyl]amino}propyl)benzamide] was run?
A: The Index was 0.028.

Q: What about the EC50 of the same compound?
A: Its EC50 is 3.3 µM.

Q: And the “Efficacy (% P1075)” value?
A: Its value is 94 % P1075.

Q: What does the source list for `CC(Cl)(Cl)C(NC(=O)c1cccc(Cl)c1)NC(=NC#N)Nc1cccnc1` (stereo not drawn) [Example 119, 3-chloro-N-(2,2-dichloro-1-{[(cyanoimino)(3-pyridinylamino)methyl]amino}propyl)benzamide]?
A: Index: 0.939; EC50 (Sus scrofa): 3.4 µM; Emax (Sus scrofa): 78%

Q: How did the Index turn out when `CC(Cl)(Cl)C(NC(=O)c1cc(F)cc(F)c1)NC(=NC#N)Nc1cccnc1` (stereo not drawn) [Example 120, N-(2,2-dichloro-1-{[(cyanoimino)(3-pyridinylamino)methyl]amino}propyl)-3,5-difluorobenzamide] was run?
A: The Index was 0.017.

Q: What about the EC50 (Sus scrofa) of the same compound?
A: Its EC50 is 7.5 µM.

Q: And the Emax (Sus scrofa)?
A: Its Emax is 84%.

Q: Which Index does the source give for `N#CN=C(Nc1cccnc1)NC(NC(=O)c1ccc(Cl)cc1)C(F)(F)C(F)(F)F` (stereo not drawn) [Example 121, 4-chloro-N-(1-{[(cyanoimino)(3-pyridinylamino)methyl]amino}-2,2,3,3,3-pentafluoropropyl)benzamide] here?
A: Its Index is 0.044.

Q: What about the EC50 (Sus scrofa) of the same compound?
A: Its EC50 is 4.8 µM.

Q: And the Emax (Sus scrofa)?
A: Its Emax is 89%.

Q: For `CC(C)(C)CC(NC(=O)c1ccc(Cl)cc1)NC(=NS(=O)(=O)C(F)(F)F)Nc1cccnc1` (stereo not drawn) [Example 142, 4-chloro-N-{3,3-dimethyl-1-[((3-pyridinylamino){[(trifluoromethyl)sulfonyl]imino}methyl)amino]butyl}benzamide], which Index is on record?
A: The Index was 0.270.

Q: And the EC50?
A: The EC50 was 0.6 µM.

Q: What about the “Efficacy (% P1075)” value of the same compound?
A: Its value is 44 % P1075.

Q: What does the source list for `CC(Cl)(Cl)C(NC(=O)c1cc(F)cc(F)c1)NC(=NC#N)Nc1ccc(C(F)(F)F)nc1` (stereo not drawn) [Example 155, N-{2,2-dichloro-1-[((cyanoimino){[6-(trifluoromethyl)-3-pyridinyl]amino}methyl)amino]propyl}-3,5-difluorobenzamide]?
A: Index: 0.022; EC50 (Sus scrofa): 2.5 µM; Emax (Sus scrofa): 95%

Q: How did the Index turn out when `CC(Cl)(Cl)C(NC(=O)c1cccc(F)c1)NC(=NC#N)Nc1ccc(Cl)nc1` (stereo not drawn) [Example 156, N-(2,2-dichloro-1-{[[(6-chloro-3-pyridinyl)amino](cyanoimino)methyl]amino}propyl)-3-fluorobenzamide] was run?
A: Its Index is 0.048.

Q: And the EC50 (Sus scrofa)?
A: Its EC50 is 4 µM.

Q: What about the Emax (Sus scrofa) of the same compound?
A: The Emax was 93%.

Q: For `CC(Cl)(Cl)C(NC(=O)c1ccc(Cl)cc1)NC(=NC#N)Nc1ccc(C(F)(F)F)nc1` (stereo not drawn) [Example 158, 4-chloro-N-{2,2-dichloro-1-[((cyanoimino){[6-(trifluoromethyl)-3-pyridinyl]amino}methyl)amino]propyl}benzamide], which Index is on record?
A: The Index was 0.061.

Q: What about the EC50 (Sus scrofa) of the same compound?
A: Its EC50 is 4.8 µM.

Q: What about the Emax (Sus scrofa) of the same compound?
A: The Emax was 92%.

Q: Which results are given for `CC(Cl)(Cl)C(NC(=O)c1cccc(Cl)c1)NC(=NC#N)Nc1ccc(C(F)(F)F)nc1` (stereo not drawn) [Example 159, 3-chloro-N-{2,2-dichloro-1-[((cyanoimino){[6-(trifluoromethyl)-3-pyridinyl]amino}methyl)amino]propyl}benzamide]?
A: Index: 0.013; EC50 (Sus scrofa): 7.9 µM; Emax (Sus scrofa): 92%

Q: Which Index does the source give for `CC(Cl)(Cl)C(NC(=O)c1ccc(Cl)cc1)NC(=NC#N)Nc1cccnc1Cl` (stereo not drawn) [Example 168, 4-chloro-N-(2,2-dichloro-1-{[[(2-chloro-3-pyridinyl)amino](cyanoimino)methyl]amino}propyl)benzamide] here?
A: Its Index is 0.064.

Q: What about the EC50 (Sus scrofa) of the same compound?
A: Its EC50 is 0.89 µM.

Q: What about the Emax (Sus scrofa) of the same compound?
A: The Emax was 92%.

Q: `CC(Cl)(Cl)C(NC(=O)c1cccc(Cl)c1)NC(=NC#N)Nc1cccc(F)c1` (stereo not drawn) [Example 169, 3-chloro-N-(2,2-dichloro-1-{[(cyanoimino)(3-fluoroanilino)methyl]amino}propyl)benzamide] was tested. Which Index did it give?
A: The Index was 0.231.

Q: And the EC50 (Sus scrofa)?
A: The EC50 was 5 µM.

Q: And the Emax (Sus scrofa)?
A: Its Emax is 75%.

Q: `Cc1cccc(C(=O)NC(NC(=NC#N)Nc2ccc(Cl)nc2)C(C)(Cl)Cl)c1` (stereo not drawn) [Example 170, N-(2,2-dichloro-1-{[[(6-chloro-3-pyridinyl)amino](cyanoimino)methyl]amino}propyl)-3-methylbenzamide] was tested. Which Index did it give?
A: The Index was 0.012.

Q: What about the EC50 (Sus scrofa) of the same compound?
A: The EC50 was 4.2 µM.

Q: And the Emax (Sus scrofa)?
A: The Emax was 100%.

Q: `CC(Cl)(Cl)C(NC(=O)c1cccc(Cl)c1)NC(=NC#N)Nc1ccccc1F` (stereo not drawn) [Example 172, 3-chloro-N-(2,2-dichloro-1-{[(cyanoimino)(2-fluoroanilino)methyl]amino}propyl)benzamide] was tested. Which Index did it give?
A: The Index was 0.507.

Q: And the EC50 (Sus scrofa)?
A: Its EC50 is 0.49 µM.

Q: And the Emax (Sus scrofa)?
A: Its Emax is 53%.

Q: How did the Index turn out when `COc1ncccc1NC(=NC#N)NC(NC(=O)c1cccc(Cl)c1)C(C)(Cl)Cl` (stereo not drawn) [Example 174, 3-chloro-N-[2,2-dichloro-1-({(cyanoimino)[(2-methoxy-3-pyridinyl)amino]methyl}amino)propyl]benzamide] was run?
A: Its Index is 2.2.

Q: What about the EC50 (Sus scrofa) of the same compound?
A: The EC50 was 1.2 µM.

Q: What about the Emax (Sus scrofa) of the same compound?
A: The Emax was 34%.

Q: Which Index does the source give for `CC(Cl)(Cl)C(NC(=O)c1ccc(Cl)cc1)NC(=NC#N)Nc1ccccc1F` (stereo not drawn) [Example 175, 4-chloro-N-(2,2-dichloro-1-{[(cyanoimino)(2-fluoroanilino)methyl]amino}propyl)benzamide] here?
A: Its Index is 0.148.

Q: And the EC50 (Sus scrofa)?
A: The EC50 was 1.5 µM.

Q: And the Emax (Sus scrofa)?
A: The Emax was 54%.
